Laboratory results: patent publication US20210308173A1, “PHARMACEUTICAL COMPOSITION COMPRISING CYCLODEXTRIN COMPLEXES OF ANETHOLE TRITHIONE OR DERIVATIVES THEREOF” (priority 2018, published 2021)
Values after ≈ are worked out from the molar mass of the structure shown.

How the values were obtained:
Type in all cases: physicochemical
[1] = Cyclodextrin solubilization screening of AOL; conditions: for CD/AOL molar ratio RM / CD/AOL weight ratio Rm: 25° C.; for solubility at 3 h / solubility at 20 h: 25 °C, thermodynamic from solid
Procedure: This assay evaluated the potential of different cyclodextrins to solubilize AOL. A solubilization screening is carried out with the four cyclodextrins (CD) selected from α-CD, γ-CD, HP-β-CD and SBE-β-CD.
Aqueous solutions containing 100 mM of cyclodextrin are prepared in pure water. An excess of AOL (approximately 5 mg/mL) is suspended in 2 mL of each of these cyclodextrin solutions. Each duplicate sample is shaken at 25° C. for 3 hours and 20 hours (vortex to 1400 rpm). Each sample is centrifuged (12,500 g) then filtered through a 0.45 μm membrane. The solubility of the AOL is quantified by HPLC as previously described (Example 2).

[2] = Co-solvent addition: AOL solubility; conditions: for solubility at 4 h: aqueous with cosolvent or surfactant or cyclodextrin, thermodynamic from solid
Procedure: SBE-β-CD compatible excipients, namely polyethylene glycol and polysorbate (Tween), were evaluated for their AOL aqueous solubilizing power. Screening was carried out in same conditions as that of solubilization screening by cyclodextrins (see Example 3).
Briefly, 20% (w/w) solutions of each excipient were prepared. An excess of AOL was added and the solutions were analyzed by HPLC after 4 hours of stirring.
The effect of the combination of SBE-β-CD and Tween 80 was measured in a comparative assay by solubilizing AOL in: (A) Tween 80, 10% (w/w); (B) SBE-β-CD 10% (w/w) (C) Tween 80 and SBE-β-CD 10% (w/w) each; (D) Tween 80 20% (w/w) (E) SBE-β-CD 20% (w/w); and (F) Tween 80 and SBE-β-CD 20% (w/w) each.
Further assays, resumed in Tables 7 and 8, confirmed that Tween 80/SBE-β-CD is a promising excipient mixture for the solubilization of AOL.

[3] = Stability versus formulation according to Dollo et al.; conditions: formulation of the invention vs formulation according to Dollo et al.
Source text: Consequently, the formulations wherein anethole trithione and derivatives thereof present an improved solubility and stability are still an unmet need.

## COc1ccc(-c2cc(=S)ss2)cc1 [AOL, 5-(4-methoxyphenyl)-3H-1,2-dithiole-3-thione]
[1]; HP-β-CD 100 mM, stirring 3 h
  CD/AOL molar ratio RM: 218
  CD/AOL weight ratio Rm: 1270
[1]; HP-β-CD 100 mM, stirring 20 h
  CD/AOL molar ratio RM: 252
  CD/AOL weight ratio Rm: 1465
[1]; SBE-β-CD 100 mM, stirring 3 h
  CD/AOL molar ratio RM: 169
  CD/AOL weight ratio Rm: 1575
[1]; SBE-β-CD 100 mM, stirring 20 h
  CD/AOL molar ratio RM: 150
  CD/AOL weight ratio Rm: 1395
[1]; aqueous cyclodextrin solution, aqueous with cosolvent or surfactant or cyclodextrin, HP-β-CD 100 mM, stirring 3 h
  solubility at 3 h: 110 µg/mL (≈ 458 µM)
[1]; aqueous cyclodextrin solution, aqueous with cosolvent or surfactant or cyclodextrin, HP-β-CD 100 mM, stirring 20 h
  solubility at 20 h: 95.5 µg/mL (≈ 397 µM)
[1]; aqueous cyclodextrin solution, aqueous with cosolvent or surfactant or cyclodextrin, SBE-β-CD 100 mM, stirring 3 h
  solubility at 3 h: 142 µg/mL (≈ 592 µM)
[1]; aqueous cyclodextrin solution, aqueous with cosolvent or surfactant or cyclodextrin, SBE-β-CD 100 mM, stirring 20 h
  solubility at 20 h: 161 µg/mL (≈ 669 µM)
[1]; aqueous cyclodextrin solution, aqueous with cosolvent or surfactant or cyclodextrin, α-CD 100 mM, stirring 3 h
  solubility at 3 h: 8.83 µg/mL (≈ 36.7 µM)
[1]; aqueous cyclodextrin solution, aqueous with cosolvent or surfactant or cyclodextrin, α-CD 100 mM, stirring 20 h
  solubility at 20 h: 13.5 µg/mL (≈ 56.2 µM)
[1]; aqueous cyclodextrin solution, aqueous with cosolvent or surfactant or cyclodextrin, γ-CD 100 mM, stirring 3 h
  solubility at 3 h: 2.86 µg/mL (≈ 11.9 µM)
[1]; aqueous cyclodextrin solution, aqueous with cosolvent or surfactant or cyclodextrin, γ-CD 100 mM, stirring 20 h
  solubility at 20 h: 1.67 µg/mL (≈ 6.95 µM)
[1]; water, None-H2O, stirring 3 h
  solubility at 3 h: 0.22 µg/mL (≈ 0.915 µM)
[1]; water, None-H2O, stirring 20 h
  solubility at 20 h: 0.16 µg/mL (≈ 0.666 µM)
[1]; α-CD 100 mM, stirring 3 h
  CD/AOL molar ratio RM: 2721
  CD/AOL weight ratio Rm: 11010
[1]; α-CD 100 mM, stirring 20 h
  CD/AOL molar ratio RM: 1779
  CD/AOL weight ratio Rm: 7198
[1]; γ-CD 100 mM, stirring 3 h
  CD/AOL molar ratio RM: 8399
  CD/AOL weight ratio Rm: 45316
[1]; γ-CD 100 mM, stirring 20 h
  CD/AOL molar ratio RM: 14405
  CD/AOL weight ratio Rm: 77723
[2]; Tween 80 at 20% (w/w) aqueous media
  chemical stability on storage: chemical stability issues
[2]; aqueous HP-β-CD solution, HP-β-CD 20% (w/w), Cremophor 10% (w/w)
  solubility at 4 h: 545 µg/mL
[2]; aqueous HP-β-CD solution, HP-β-CD 20% (w/w), Cremophor 20% (w/w)
  solubility at 4 h: 814 µg/mL
[2]; aqueous HP-β-CD solution, HP-β-CD 20% (w/w), PVP 12PF 0.5% (w/w)
  solubility at 4 h: 296 µg/mL
[2]; aqueous HP-β-CD solution, HP-β-CD 20% (w/w), PVP 12PF 2.0% (w/w)
  solubility at 4 h: 291 µg/mL
[2]; aqueous HP-β-CD solution, HP-β-CD 20% (w/w), Tween 80 2% (w/w)
  solubility at 4 h: 329 µg/mL
[2]; aqueous HP-β-CD solution, HP-β-CD 20% (w/w), Tween 80 10% (w/w)
  solubility at 4 h: 396 µg/mL
[2]; aqueous HP-β-CD solution, HP-β-CD 20% (w/w), Tween 80 20% (w/w)
  solubility at 4 h: 660 µg/mL
[2]; aqueous HP-β-CD solution, HP-β-CD 20% (w/w), co-solvent 0% (w/w)
  solubility at 4 h: 283 µg/mL
[2]; aqueous HP-β-CD solution, HP-β-CD 30% (w/w), Cremophor 10% (w/w)
  solubility at 4 h: 642 µg/mL
[2]; aqueous HP-β-CD solution, HP-β-CD 30% (w/w), PVP 12PF 0.5% (w/w)
  solubility at 4 h: 532 µg/mL
[2]; aqueous HP-β-CD solution, HP-β-CD 30% (w/w), PVP 12PF 2.0% (w/w)
  solubility at 4 h: 517 µg/mL
[2]; aqueous HP-β-CD solution, HP-β-CD 30% (w/w), Tween 80 2% (w/w)
  solubility at 4 h: 426 µg/mL
[2]; aqueous HP-β-CD solution, HP-β-CD 30% (w/w), Tween 80 10% (w/w)
  solubility at 4 h: 439 µg/mL
[2]; aqueous HP-β-CD solution, HP-β-CD 30% (w/w), Tween 80 20% (w/w)
  solubility at 4 h: 1680 µg/mL
[2]; aqueous HP-β-CD solution, HP-β-CD 30% (w/w), co-solvent 0% (w/w)
  solubility at 4 h: 540 µg/mL
[2]; aqueous SBE-β-CD solution, SBE-β-CD 20% (w/w), Cremophor 10% (w/w)
  solubility at 4 h: 644 µg/mL
[2]; aqueous SBE-β-CD solution, SBE-β-CD 20% (w/w), PVP 12PF 0.5% (w/w)
  solubility at 4 h: 389 µg/mL
[2]; aqueous SBE-β-CD solution, SBE-β-CD 20% (w/w), PVP 12PF 2.0% (w/w)
  solubility at 4 h: 371 µg/mL
[2]; aqueous SBE-β-CD solution, SBE-β-CD 20% (w/w), Tween 80 2% (w/w)
  solubility at 4 h: 374 µg/mL
[2]; aqueous SBE-β-CD solution, SBE-β-CD 20% (w/w), Tween 80 10% (w/w)
  solubility at 4 h: 587 µg/mL
[2]; aqueous SBE-β-CD solution, SBE-β-CD 20% (w/w), Tween 80 20% (w/w)
  solubility at 4 h: 829 µg/mL
[2]; aqueous SBE-β-CD solution, SBE-β-CD 20% (w/w), co-solvent 0% (w/w)
  solubility at 4 h: 375 µg/mL
[2]; aqueous SBE-β-CD solution, SBE-β-CD 30% (w/w), Cremophor 10% (w/w)
  solubility at 4 h: 814 µg/mL
[2]; aqueous SBE-β-CD solution, SBE-β-CD 30% (w/w), PVP 12PF 0.5% (w/w)
  solubility at 4 h: 668 µg/mL
[2]; aqueous SBE-β-CD solution, SBE-β-CD 30% (w/w), PVP 12PF 2.0% (w/w)
  solubility at 4 h: 670 µg/mL
[2]; aqueous SBE-β-CD solution, SBE-β-CD 30% (w/w), Tween 80 2% (w/w)
  solubility at 4 h: 630 µg/mL
[2]; aqueous SBE-β-CD solution, SBE-β-CD 30% (w/w), Tween 80 10% (w/w)
  solubility at 4 h: 616 µg/mL
[2]; aqueous SBE-β-CD solution, SBE-β-CD 30% (w/w), Tween 80 20% (w/w)
  solubility at 4 h: 1280 µg/mL
[2]; aqueous SBE-β-CD solution, SBE-β-CD 30% (w/w), co-solvent 0% (w/w)
  solubility at 4 h: 685 µg/mL
[2]; cyclodextrin media
  influence of PVP 12PF on solubility: did not had any influence
[2]; same temperature and concentration of excipient
  solubility in Tween 80 compared with SBE-β-CD solutions: higher solubility in Tween 80
[3]
  stability of the active compound: significantly more stable
